Here are results for one compound from patent US20230240290A1, “USE OF (Z)-3-HEXENYL ESTERS AND METHOD FOR PROTECTING PLANTS AGAINST PESTS” (UNIVERSITAT POLITÈCNICA DE VALÈNCIA, priority 2020, published 2023).

The nature of series [1]: Emission kinetics of the dispenser (gravimetric method). The series is classed as physicochemical. The following applies: 4-mL LD polyethylene vial loaded with 4 ml, field conditions; slope of the fitted model. The method, then:
Two different types of polymeric emitters were used to test the activation level that different emission levels of (Z)-3-hexenyl propionate can provide: 4-mL low-density (LD) polyethylene vial and 4-mL high-density (HD) polyethylene vial. The highest emission level (5 mg/day) was achieved through previous laboratory studies with LD dispensers loaded with 20 mg of the pure substance. The lowest emission level (0.01 mg/day) was provided by HD vials loaded with a 1:100 mixture of (Z)-3-hexenyl propionate and paraffinic oil (0.02:2; g:g). The emission kinetics of the emitters used during the experiments was controlled by studying weight loss (gravimetric method). Additional dispensers were placed in the same environmental conditions, measuring their weight weekly with a precision scale (0.0001 g). The difference in weight recorded in each period will be the emitted quantity of the substance for each type of dispenser. To obtain the mean emission level of each dispenser, the recorded weights (y) are related to the aging time (x) using a multiple regression analysis.
As mentioned earlier, 2 zones were selected in each of the greenhouses in which, on 22 Feb. 2019, a dispenser (4-ml low-density (LD) polyethylene vial) loaded with 4 ml of (Z)-3-hexenyl was hung every 20 m^2 in one of them, and the other with the same surface area was used as a control treatment. […]

The test system of a further series is Tetranychus urticae. In words: Development of Tetranychus urticae on exposed tomato plants. The class given is in vivo. As to conditions: T. urticae, 21 days after release. As to the method:
It was also studied whether the defensive activation induced by exposure to (Z)-3-hexenyl propanoate could influence the development of two highly important phytophages in tomato cultivation, the red spider, T. urticae, and the lepidoptera T. absoluta. The individuals used in these experiments came from the captive breeding of these species that are kept in the IVIA described above. The exposure time of the plant to the volatile was tested on both phytophages in two different ways, one where the plant was only exposed to the volatile for 24 hours and then the herbivore to be assayed was immediately released, and the other where the volatile was permanently exposed throughout the experiment.
For this purpose, two climatic chambers were used under the same environmental conditions [25±2° C., 65±5% HR and 14:10 h (L:D) photoperiod], wherein, to avoid interference between the volatiles, one was assigned to the (Z)-3-hexenyl propanoate treatments and one to the control treatment. […]
Eight tomato plants (Lycopersicon esculentum cv. Moneymaker) were introduced in each cage. […] Naked eye sampling was carried out seven, 14, and 21 days after the release of T. urticae, where the total number of T. urticae females in each plant was counted.

Another series relates to Diaphorina citri. Nature of the series: Citrus field assay with sentinel Murraya paniculata seedlings with and without dispenser. The class given is in vivo. As to the method:
A Valencia orange field with a high presence of receptive shoots and a population of D. citri adults located in the experimental fields of SWFREC (University of Florida) was selected. […] Sentinel plants that were hung inside the tree canopy were used. The sentinel plants were seedlings of Murraya paniculata with shoots receptive to the laying of D. citri. 7 seedlings with a dispenser (polymeric dispenser that was loaded with 1.5 ml of (Z)-3-hexenyl propanoate) and 7 seedlings without a dispenser were used. Each seedling was distributed in the field following a random block design (using a row of trees as a block), and one seedling with a dispenser and another one without was placed in each block. The seedlings were located at a minimum distance of 50 meters from each other to avoid any edge effect.
After 4 days of placing the seedlings, these were collected from the field and taken to the laboratory, where the number of eggs per shoot in each of the seedlings was counted under a binocular loupe.

With `CC/C=C\CCOC(=O)CC` [(Z)-3-hexenyl propanoate], the “Mean emission rate from the dispenser” value in series [1] is reported as 12.2 mg/day. Further, the figures for the “Reduction in the number of mites per plant with respect to the control” value with Tetranychus urticae (plant exposed for 24 h before release) and in the series with Tetranychus urticae (plant exposed throughout the entire experiment) were 50.3±6.3% and 83.9±5.0%, respectively. For the same compound, the “Reduction of D. citri (laying, eggs per shoot)” value in the series on Diaphorina citri (Valencia orange field, Murraya paniculata sentinel seedlings, dispenser with 1.5 ml, 4 days) is listed as “more than 70%”. The “Laying of D. citri” value in the series with Diaphorina citri (citrus plant exposed to the volatile, summary statement) is “reduced by more than half”.
